# Measurements taken from patent publication US9944597B2, “Polysubstituted pyrroles having microtubule-disrupting, cytotoxic and antitumor activities and methods of use thereof” (THE BOARD OF REGENTS OF THE UNIVERSITY OF TEXAS SYSTEM, priority 2013, dated 2018).
# Like-named read-outs stand apart in the source and are kept apart here.
# What was measured:
# [1] = test system: MDA-MB-435 (human melanoma cancer cells); experiment: Antiproliferative SRB assay, MDA-MB-435; assay type: cell-based; details: read-out: MDA-MB-435 Anti-Proliferative Activity, IC50
# Method: (§1) Cell Culture. Various representative cancer and other cell lines were sourced and grown as described previously [Mooberry, S. L., et al., Mol. Pharm. 72, 132-140 (2007)]. MDA-MB-435 (human melanoma cancer cells), and MDA-MB-231 (human breast cancer cells) were grown in IMEM Richter's Medium (Life Technologies, Grand Island, N.Y.) with 10% FBS (Hyclone, Logan, Utah) and 25 μg/mL gentamicin sulfate (Life Technologies). A-10 (embryonic rat vascular smooth muscle cells) and HeLa (human cervical cancer cells), SK-OV-3 (human ovarian cancer cells) and SK-OV-3-MDR-1-M6/6 (a clone of the SK-OV-3 that was generated from SK-OV-3 cells by adenovirus-mediated expression of MDR1) were grown in Basal Medium Eagle (BME, Sigma-Aldrich, St. Louis, Mo.) containing Earle's salts, 50 μg/ml gentamicin sulfate, and 10% FBS. HeLa cells (a single-cell clone derived from transduction of HeLa cells with wild-type (WT) βIII-tubulin) were grown in Dulbecco's Modified Eagle's Medium (DMEM, Life Technologies) containing 50 μg/mL gentamicin sulfate and 10% FBS.
# (§2) Antiproliferative Effects. The pyrrole compounds were evaluated for their antiproliferative effects in a panel of cancer cell lines. Cells were plated into 96-well plates at predetermined densities and allowed to attach and proliferate for 24 hr, and then the compounds were added. After a 48 hr exposure to the compounds, the cells were fixed with trichloroacetic acid and cellular protein was determined using the sulforhodamine B (SRB) assay (Skehan et al., J. Natl. Cancer Inst. 82, 1107-12, (1990); Boyd and Paull Drug Devel. Res. 34, 91-109, (1995)). Concentration response curves were constructed, and the IC50 (the concentration required to inhibit proliferation by 50%) values were determined from the linear portions of the log concentration-response curves as described previously [Tinley, T. L., et al., Cancer Res. 63, 3211-3220, (2003)] as shown in Table 48.
# [2] = test system: HeLa (human cervical cancer cells); experiment: Antiproliferative SRB assay, HeLa; assay type: cell-based
# Method: as §1, §2
# (§3) First, drug resistance mediated by the expression of βIII tubulin was evaluated in an isogenic HeLa cell line pair. Expression of the βIII tubulin isotype is associated with clinical drug resistance to the taxanes in ovarian cancer, non small-cell lung cancer and breast cancer [Galmarini, C. M., et al., Clin. Cancer Res. 14, 4511-4516 (2008)]. Secondly, drug resistance mediated by the expression of the drug efflux pump protein, Pgp, was evaluated in the isogenic SK-OV-3 cell line pair. The expression of Pgp can lead to lower intracellular drug concentrations and diminished cytotoxic effects both in vitro and in vivo. All tubulin-binding anticancer drugs used currently in the clinic, except cabazitaxel, are substrates for Pgp, thus limiting their utility in drug resistant tumors [Penson, R. T., et al., Gynecol. Oncol. 93, 98-106 (2004)]. Differences in sensitivity between the parent and transformed cell line, indicative of resistance, was determined by calculating relative resistance (Rr) values in the two pairs of isogenic cell lines (dividing the IC50 of the expressing cell line by the IC50 of the parental cell line).
# [3] = test system: SK-OV-3 (human ovarian cancer cells); experiment: Antiproliferative SRB assay, SK-OV-3; assay type: cell-based
# Method: as §1, §2
# as §3, with “The expression of Pgp can lead to lower intracellular drug concentrations and diminished cytotoxic effects both in vitro and in vivo.” left out
# HeLa WT-β-III cells = experiment: Antiproliferative SRB assay, βIII-tubulin expressing HeLa; assay type: cell-based, human; details: for IC50: Table 49, βIII tubulin expressing line, 48 hr, SRB assay; for Rr (β-III): relative resistance: IC50 of expressing line divided by IC50 of parental HeLa
# Method: as §1, §2, §3
# SK-OV-3-MDR-1-6/6 cells = experiment: Antiproliferative SRB assay, Pgp expressing SK-OV-3; assay type: cell-based, human; details: for IC50: Table 49, Pgp expressing line, 48 hr, SRB assay; for Rr (Pgp): relative resistance: IC50 of expressing line divided by IC50 of parental SK-OV-3
# Method: as §1, §2
# as §3, with “The expression of Pgp can lead to lower intracellular drug concentrations and diminished cytotoxic effects both in vitro and in vivo.” left out
# A-10 cells = experiment: Cellular microtubule loss by indirect immunofluorescence; assay type: cell-based, rat; details: read-out: EC50 Values (nM) for Microtubule Loss in A-10 cells
# Method: The effects of representative compounds on cellular microtubules were evaluated in A-10 (embryonic rat vascular smooth muscle cell line) cells using indirect immunofluorescence techniques as previously described (Tinley et al., Cancer Res. 63, 3211-20 (2003)). Cells were visualized using a Nikon Eclipse 80i fluorescence microscope and NIS Elements software. Changes in both interphase and mitotic microtubules were noted and photographed. The EC50 values, the concentration that causes approximately 50% loss of interphase microtubules was determined by evaluating a range of concentrations of each compound and the percent cellular microtubule depolymerization that was observed visually at each concentration was noted.
# Microtubules were visualized by indirect immunofluorescence using a β-tubulin antibody, and the DNA was visualized with DAPI. A representative concentration response curve for NT-7-16 is also shown in FIG. 1 that was used to calculate its corresponding EC50 for microtubule loss. Concentration response curves for microtubule loss were plotted using data from at least three experiments for each compound and the corresponding EC50 values for microtubule loss are presented in Table 50.
# [4] = Homo sapiens, MDA-MB-435, Table 48, 48 hr exposure, SRB assay
# [5] = Homo sapiens, MDA-MB-435, Table 52
# [6] = Homo sapiens, HeLa, Table 48, 48 hr exposure, read-out: HeLa Anti-Proliferative Activity, IC50
# [7] = Homo sapiens, HeLa, Table 49, parental line, 48 hr, read-out: HeLa IC50
# [8] = Homo sapiens, SK-OV-3, Table 48, 48 hr exposure, read-out: SK-OV-3 Anti-Proliferative Activity, IC50
# [9] = Homo sapiens, SK-OV-3, Table 49, parental line, 48 hr, read-out: SK-OV-3 IC50
# [10] = Rattus norvegicus, A10, Table 50, concentration causing approximately 50% loss of interphase microtubules
# [11] = Table 49, parental line, 48 hr, read-out: HeLa IC50
# [12] = Table 49, parental line, 48 hr, read-out: SK-OV-3 IC50
# [13] = Table 50, concentration causing approximately 50% loss of interphase microtubules
"IC50 [1, 4] [nM]","IC50 [1, 5] [nM]","IC50 [2, 6] [nM]","IC50 [3, 8] [nM]","IC50 (HeLa WT-β-III cells; Homo sapiens, HeLa) [nM]","IC50 (SK-OV-3-MDR-1-6/6 cells; Homo sapiens, SK-OV-3) [nM]",EC50 (A-10 cells; [10]) [nM],melting point [°C],Compound,"IC50 [2, 7] [nM]","IC50 [3, 9] [nM]",Rr (β-III) (HeLa WT-β-III cells),Rr (Pgp) (SK-OV-3-MDR-1-6/6 cells),also measured
9.3 ± 0.3,9.3 ± 0.3,10.9 ± 0.3,22.3 ± 0.5,19.4 ± 0.4,26.7 ± 0.3,24,,"CCOC(=O)c1[nH]c(/C=C/C(=O)OC)c(-c2ccc(OC)c(OC)c2OC)c1Br [Example 8b, Trans-3-Bromo-5-(3-methoxy-3-oxoprop-1-en-1-yl)-4-(2,3,4-trimethoxyphenyl)-1H-pyrrole-2-carboxylic acid ethyl ester]",10.9 ± 0.3,22.3 ± 0.5,1.8,1.2,
23.9 ± 1.2,23.9 ± 1.2,14.8 ± 0.2,16.4 ± 0.9,26 ± 1,10.4 ± 0.9,55,,"CCOC(=O)c1[nH]c(/C=C\C(=O)OC)c(-c2ccc(OC)c(OC)c2OC)c1Br [Example 8a, Cis-3-Bromo-5-(3-methoxy-3-oxoprop-1-en-1-yl)-4-(2,3,4-trimethoxyphenyl)-1H-pyrrole-2-carboxylic acid ethyl ester]",14.8 ± 0.2,16.4 ± 0.9,1.8,0.6,

# The next lines start with the compound.
Compound,"IC50 [1, 4] [nM]","IC50 [1, 5] [nM]","IC50 [2, 6] [nM]","IC50 [3, 8] [nM]","IC50 (HeLa WT-β-III cells; Homo sapiens, HeLa) [nM]","IC50 (SK-OV-3-MDR-1-6/6 cells; Homo sapiens, SK-OV-3) [nM]",EC50 (A-10 cells; [10]) [nM],melting point [°C],"IC50 [2, 7] [nM]","IC50 [3, 9] [nM]",Rr (β-III) (HeLa WT-β-III cells),Rr (Pgp) (SK-OV-3-MDR-1-6/6 cells),also measured
"CCOC(=O)c1[nH]c(C=NO)c(-c2ccc(OC)c(OC)c2OC)c1Cl (mixture of isomers) [Example 21, Cis/Trans-3-chloro-4-(2,3,4-trimethoxyphenyl)-5-oximino-1H-pyrrole 2-carboxylic acid ethyl ester]",87.7 ± 10,87.7 ± 10,123 ± 6.5,175 ± 30.4,109 ± 9.5,419 ± 30.4,170,135 to 140,123 ± 6.5,175 ± 30.4,0.9,1.9,
CCOC(=O)c1[nH]c(C=NO)c(-c2ccc(OC)c(OC)c2OC)c1Br [Example 10c],,,,,,,,,,,1.4,1.8,"IC50 ([1]; Table 52): 14 ± 0.8 nM; IC50 [2, 11]: 18 ± 0.9 nM; IC50 [3, 12]: 23.1 ± 0.5 nM; IC50 (HeLa WT-β-III cells): 25 ± 1.4 nM; IC50 (SK-OV-3-MDR-1-6/6 cells): 41.6 ± 1.9 nM; EC50 (A-10 cells; [13]): 56.2 nM; EC50 (A-10 cells; Table 52): 56.2 nM"
"C=Cc1[nH]c(C(=O)OCC)c(Br)c1-c1ccc(OC)c(OC)c1OC [Example 7, 3-Bromo-5-vinyl-4-(2,3,4-trimethoxyphenyl)-1H-pyrrole 2-carboxylic acid ethyl ester]",17.6 ± 1,17.6 ± 1,23.8 ± 1.7,26.6 ± 1.1,20.5 ± 0.8,28.1 ± 1.9,54,,23.8 ± 1.7,26.6 ± 1.1,0.9,1.1,
"CCOC(=O)c1[nH]c(C(=O)O)c(-c2ccc(OC)c(OC)c2OC)c1Br [Example 9, 3-Bromo-4-(2,3,4-trimethoxyphenyl)-5-carboxy-1H-pyrrole 2-carboxylic acid ethyl ester]",1530,1530,2340,,,,4600,173 to 175,2340,,,,
"CCOC(=O)c1[nH]c(CO)c(-c2ccc(OC)c(OC)c2OC)c1Br [Example 5, 3-Bromo-5-(hydroxymethyl)-4-(2,3,4-trimethoxyphenyl)-1H-pyrrole 2-carboxylic acid ethyl ester]",25.7 ± 0.8,25.7 ± 0.8,33.4 ± 0.8,37.4 ± 1.3,27.4 ± 3.1,46.6 ± 2.1,76,,33.4 ± 0.8,37.4 ± 1.3,0.8,1.2,
"CCOC(=O)c1[nH]c(CNCCNC(=O)OC(C)(C)C)c(-c2ccc(OC)c(OC)c2OC)c1Br [Example 19, 3-Bromo-5-[((N-2-tert-butoxycarbonylamino)-ethylamino)-methyl]-4-(2,3,4-trimethoxyphenyl)-1H-pyrrole 2-carboxylic acid ethyl ester]",,,,,,,,235 to 237,,,,,
"CCOC(=O)c1[nH]c(CNCCN)c(-c2ccc(OC)c(OC)c2OC)c1Br [Example 20, 5-[N-((2-Aminoethyl)amino)methyl]-3-Bromo-4-(2,3,4-trimethoxyphenyl)-1H-pyrrole 2-carboxylic acid ethyl ester]",,,,,,,,135 to 137,,,,,
"CCOC(=O)c1cc(-c2ccc(OC)c(OC)c2OC)c(C=O)[nH]1 [Example 1, 4-(2,3,4-trimethoxyphenyl)-5-formyl-1H-pyrrole 2-carboxylic acid ethyl ester]",,,,,,,,138 to 140,,,,,
"Cis-3-Bromo-4-(2,3,4-trimethoxyphenyl)-5-oximino-1H-pyrrole 2-carboxylic acid ethyl ester [Example 10b]",,,,,,,,,,,1.1,1.5,"IC50 ([1]; Table 48, 48 hr exposure, SRB assay): 25.3 ± 3.1 nM; IC50 ([1]; Table 52): 25.3 ± 3.1 nM; IC50 ([2]; Table 48, 48 hr exposure, read-out: HeLa Anti-Proliferative Activity, IC50): 29.4 ± 1 nM; IC50 [2, 11]: 29.4 ± 1 nM; IC50 ([3]; Table 48, 48 hr exposure, read-out: SK-OV-3 Anti-Proliferative Activity, IC50): 33.7 ± 1.3 nM; IC50 [3, 12]: 33.7 ± 1.3 nM; IC50 (HeLa WT-β-III cells): 31.3 ± 0.5 nM; IC50 (SK-OV-3-MDR-1-6/6 cells): 49.6 ± 2.4 nM; EC50 (A-10 cells; [13]): 108 nM; EC50 (A-10 cells; Table 52): 108 nM"
